How the values were obtained:
[1] = target: T1, rabbit uterus cytosol progesterone receptor (Oryctolagus cuniculus, UniProt P06186); assay: Relative affinity to rabbit uterus cytosol progesterone receptor (3H-progesterone competition); format: binding; conditions: compared to progesterone; 50% competition with 3H-progesterone; 16-18 hours at 4° C.
T1 construct: One ml portions of the supernatant (rabbit uterus cytosol) were pipetted into small centrifuge tubes of glass; from tissue; host or cells: uterus cytosol (105,000×g supernatant) of female rabbits pretreated with polyestradiol phosphate
T1 sequence (P06186 1-930): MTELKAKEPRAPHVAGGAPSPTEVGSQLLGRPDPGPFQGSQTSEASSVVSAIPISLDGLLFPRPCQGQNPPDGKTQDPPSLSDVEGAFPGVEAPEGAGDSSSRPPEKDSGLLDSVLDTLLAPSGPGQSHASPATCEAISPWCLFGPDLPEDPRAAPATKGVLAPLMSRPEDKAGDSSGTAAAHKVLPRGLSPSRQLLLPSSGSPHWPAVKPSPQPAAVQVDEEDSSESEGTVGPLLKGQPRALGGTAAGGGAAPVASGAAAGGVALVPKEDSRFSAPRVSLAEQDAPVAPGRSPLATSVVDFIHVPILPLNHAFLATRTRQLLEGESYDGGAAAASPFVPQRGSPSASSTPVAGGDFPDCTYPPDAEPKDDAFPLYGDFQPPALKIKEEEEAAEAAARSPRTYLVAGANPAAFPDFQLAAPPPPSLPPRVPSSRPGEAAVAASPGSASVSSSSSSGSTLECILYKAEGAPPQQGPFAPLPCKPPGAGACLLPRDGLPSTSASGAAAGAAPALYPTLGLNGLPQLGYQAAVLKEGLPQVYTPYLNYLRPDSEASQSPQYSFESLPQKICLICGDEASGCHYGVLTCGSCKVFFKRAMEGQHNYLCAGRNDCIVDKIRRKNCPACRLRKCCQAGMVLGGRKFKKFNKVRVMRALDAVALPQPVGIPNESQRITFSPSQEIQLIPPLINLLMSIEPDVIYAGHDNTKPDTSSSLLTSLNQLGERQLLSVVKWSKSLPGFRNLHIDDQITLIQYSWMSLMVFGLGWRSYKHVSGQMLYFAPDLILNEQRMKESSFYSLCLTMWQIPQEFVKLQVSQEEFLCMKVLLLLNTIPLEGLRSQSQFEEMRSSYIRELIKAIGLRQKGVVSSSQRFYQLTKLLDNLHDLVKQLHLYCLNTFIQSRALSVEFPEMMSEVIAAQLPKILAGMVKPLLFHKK
Protocol: This example illustrates the compound's relative affinity to rabbit uterus cytosol progesterone receptor compared with progesterone. The method used for this purpose is a modification of methods already described by Kontula, K. et al. (Acta Endocrinol. 78 (1975) 574) and Terenius, L. (Steroids 23 (1974) 909) among others.
Female rabbits (3-4 pounds) from Knut Larsen, Uddevalla, Sweden, were injected i.m. with 1 mg Estradurin (polyestradiol phosphate, 1 mg/ml saline, AB Leo, Sweden). After one week, the animals were killed and the uteri were immediately removed, chilled and cut free from connective tissues. All the following operations were performed at 0°-4° C. The uteri were cut into small pieces and washed several times with 3 vol. of buffer at pH 7.4 containing 50 MM TRIS-HCl, 1.5 mM EDTA, 3 mM NaN3, 2 mM dithiothreitol, and 25% glycerol (by vol.). The tissue was homogenized in the same buffer (3 vol.) with four 15-s bursts at rheostat setting 36-37 of an Ultra Turrax (Janke and Kunkel KG, Staufen, The Federal Republic of Germany). The homogenate was centifuged in a Sorvall GLC-2 centrifuge for 15 min at 600×g. The supernatanate was recentrifuged at 105,000×g for 60 min in a Beckman ultracentrifuge model LB-65-B with rotor SW 56.
One ml portions of the supernatant (rabbit uterus cytosol) were pipetted into small centrifuge tubes of glass and were kept at -70° C. until used. The protein content was determined by the method of Lowry (J. Biol. Chem. 193 (1951) 265).
10.0 mg of each compound was dissolved in 10.0 ml 99.5% ethanol. 100 μl of this standard solution was diluted to 5.0 ml ethanol/glycerol 1:1 (v/v). The ethanol was evaporated by blowing air at 40° C. on the solution. The volume was then adjusted to 5.0 ml by adding buffer without glycerol.
The compounds were diluted with glycerol/buffer 1:1 to final concentrations between 10^-8 -10^-5 M in total 300 μl incubation media. 100 μl of each compound and of each dilution were incubated in small centrifuge tubes (2 ml) together with 100 μl (10 pg) ^3 H-progesterone (1,2,6,7-3H-progesterone, 47.8 Ci/mMol, The Radiochemical Centre, Amersham, England) and 100 μl cytosol adjusted with buffer to a final concentration of about […]. The incubations were carried out for 16-18 hours at 4° C.
The separation of bound from free radioactivity was carried out at 0° C. using the dextran coated charcoal technique (DCC). To each incubation tube was added 0.5 ml DCC-suspension (0.05% dextran-70, Pharmacia, Uppsala, Sweden and 0.5% Norit A, Sigma, Saint Louis, Missouri, U.S.A.) The tubes were agitated 2-3 times during 10 minutes whereupon they were centrifuged at 100×g for five minutes. The supernatantes were decanted directly into Scintillation vials (polyethene, Packard) containing 10 ml InstaGel (Packard). The radioactivity was counted in a Philip's liquid scintillation spectrometer Model PW 4510/00 with external standard and automatic quenching correction.
To incubation tubes were added 100 μl cytosol, 100 μl ^3 H-progesterone (10 pg) and 100 μl of different dilutions of non-radioactive progesterone in glycerol/buffer 1:1 ranging from 0-10^4 pg/100 μl. The tubes were incubated parallel with the compounds described above. The radioactivity was calculated by substracting the counted radioactivity in the incubation tubes with the radioactivity counted in incubations tubes in which the cytosol was replaced with buffer (100 μl).
The concentration of non-radioactive progesterone [P]i which competes for 50% of bound radioactive progesterone was calculated from the standard curve constructed [B] i/[B] o=0.5 where [B]i is the bound radioactivity at different concentrations of non-radioactive progesterone and [B]o is the bound radioactivity at progesterone concentration zero.
In the same manner, curves were constructed for each compound X and the concentration for each compound which competes for 50% with bound ^3 H-progesterone ([X]50) was calculated. […]

[2] = test system: Ehrlich ascites tumour, ELD hyperdiploid; assay: Ehrlich ascites tumour, ELD hyperdiploid (46 chromosomes), growth inhibition in mice; format: in vivo, SPF NMRI mice; conditions: one i.p. injection; for Tumour weight Treated/Control: 8th day; for antitumour activity: result in words
From the text: (§1) The experimental design and the interpretation of the results are in accordance with the standards set by the CCNSC (Cancer Chemotherpy Reports, January 1959 and December 1962).
Ehrlich ascites tumour, ELD hyperdiploid
Experimental animals: SPF NMRI mice.
Tumour implant: 2 × 10^6 tumour cells i.p.
(§2) Therapy: One injection i.p. on the day following implanta-
(§3) Termination: The animals are killed on the 8th day.
Evaluation: Weight of tumours of test animals compared with
those of control animals.

[3] = test system: Walker carcinosarcoma 256; assay: Walker carcinosarcoma 256 tumour growth inhibition in rats; format: in vivo, Sprague-Dawley rats; design: ED50: unit: mg/kg; conditions: daily p.o. for 5 days; for antitumour activity: result in words; for ED50: dose causing 50 percent reduction of tumour size, killed 9th day
From the text: (§4) LD50 is the dose that causes a 50 percent lethality of the animals, and ED50 is the dose that causes a 50 percent reduction of tumour size.
as §1
(§5) Walker carcinosarcoma 256.
(§6) Experimental animals: Sprague-Dawley rats.
(§7) Tumour implant: Tumour pieces with 2-4 mm diameter, sub-
(§8) Therapy: Daily p.o. administration for 5 days starting on
(§9) the day following implantation.
(§10) Termination: The animals are killed on the 9th day.
(§11) Evaluation: Weights of tumours of test animals are compared
(§12) with those of control animals.

[4] = Hepatome AH 130 tumour growth inhibition in rats; format: in vivo, Sprague-Dawley rats; design: ED50: unit not given here; conditions: rat, in vivo, ip, one i.p. injection; for LD50: dose causing 50 percent lethality, column head not given; for selectivity ratio: read-out: T.I. (LD50/ED50)
From the text: as §4, §1, §6
(§13) Tumour implant: 5 × 10^6 tumour cells i.p.
as §2, §3, §11, §12

[5] = test system: Hepatome AH 130; assay: Hepatome AH 130 tumour growth inhibition in rats; format: in vivo, Sprague-Dawley rats; design: ED50: unit not given here; conditions: one i.p. injection, dose causing 50 percent reduction of tumour size, killed 8th day
From the text: as §4, §1, §6, §13, §2, §3, §11, §12

[6] = Walker carcinosarcoma 256 tumour growth inhibition in rats; format: in vivo, Sprague-Dawley rats; design: ED50: unit: mg/kg; conditions: rat, in vivo, po, daily p.o. for 5 days; for LD50: dose causing 50 percent lethality; for selectivity ratio: read-out: T.I. (LD50/ED50)
From the text: as §4, §1, §5, §6, §7, §8, §9, §10, §11, §12

CC(=O)[C@@]1(OC(=O)COC(=O)Nc2ccc(N(CCCl)CCCl)cc2)CC[C@H]2[C@@H]3CCC4=CC(=O)CC[C@]4(C)[C@H]3CC[C@@]21C [Compound 5:1, 17α-/4-(N,N-bis(2-chloroethyl)amino)phenylcarbamoyloxyacetoxy/pregn-4-ene-3,20-dione]
relative binding affinity (RBA) [1]: 15.8% | Mortality ([2]; 1000 mg/kg): 0/12 | Tumour weight Treated/Control ([2]; 1000 mg/kg): 1% | antitumour activity [2]: exhibit antitumour activity | antitumour activity [3]: exhibit antitumour activity | LD50 [4]: > 250 mg/kg | selectivity ratio [4]: > 8 | ED50 [5]: 30

CC(=O)[C@@]1(OC(=O)CCCOC(=O)c2ccc(C)c(N(CCCl)CCCl)c2)CC[C@H]2[C@@H]3CCC4=CC(=O)CC[C@]4(C)[C@H]3CC[C@@]21C [7:4, 17α-/4-(3-(N,N-bis(2-chloroethyl)amino)-4-methylbenzoyloxy)butanoyloxy/pregn-4-ene-3,20-dione]
relative binding affinity (RBA) [1]: 0.9% | antitumour activity [2]: exhibit antitumour activity | antitumour activity [3]: exhibit antitumour activity | LD50 [4]: > 250 mg/kg | selectivity ratio [4]: > 15 | ED50 [5]: 16

CC(=O)[C@@]1(OC(=O)CNC(=O)CCCc2ccc(N(CCCl)CCCl)cc2)CC[C@H]2[C@@H]3CCC4=CC(=O)CC[C@]4(C)[C@H]3CC[C@@]21C [Compound 4:1, 17α-/4-(4-(N,N-bis(2-chloroethyl)amino)phenyl)butanoylaminoacetoxy/pregn-4-ene-3,20-dione]
relative binding affinity (RBA) [1]: 1.1% | antitumour activity [2]: exhibit antitumour activity | antitumour activity [3]: exhibit antitumour activity | LD50 [4]: > 250 mg/kg | selectivity ratio [4]: > 2 | ED50 [5]: 125

CC(=O)[C@@]1(OC(=O)COC(=O)CCCc2ccc(N(CCCl)CCCl)cc2)CC[C@H]2[C@@H]3CCC4=CC(=O)CC[C@]4(C)[C@H]3CC[C@@]21C [Compound 3:2, 17α-/4-(4-(N,N-bis(2-chloroethyl)amino)phenyl)butanoyloxyacetoxy/pregn-4-ene-3,20-dione]
relative binding affinity (RBA) [1]: 0.7% | Mortality ([2]; 50 mg/kg): 0/12 | Tumour weight Treated/Control ([2]; 50 mg/kg): 1% | LD50 [6]: > 250 mg/kg | selectivity ratio [6]: > 83 | ED50 [3]: 3 | LD50 [4]: > 1000 mg/kg | selectivity ratio [4]: > 10 | ED50 [5]: 100

CC(=O)[C@@]1(OC(=O)COC(=O)Cc2ccc(N(CCCl)CCCl)cc2)CC[C@H]2[C@@H]3CCC4=CC(=O)CC[C@]4(C)[C@H]3CC[C@@]21C [3:1, 17α-/4-(N,N-bis(2-chloroethyl)amino)phenylacetoxyacetoxy/pregn-4-ene-3,20-dione]
relative binding affinity (RBA) [1]: 6.6% | Mortality ([2]; 50 mg/kg): 1/12 | Tumour weight Treated/Control ([2]; 50 mg/kg): 3% | LD50 [6]: > 250 mg/kg | selectivity ratio [6]: > 31 | ED50 [3]: 8 | LD50 [4]: > 250 mg/kg | selectivity ratio [4]: > 83 | ED50 [5]: 3

CC(=O)[C@@]1(OC(=O)CCCOC(=O)CCCc2ccc(N(CCCl)CCCl)cc2)CC[C@H]2[C@@H]3CCC4=CC(=O)CC[C@]4(C)[C@H]3CC[C@@]21C [Compound 3:3]
relative binding affinity (RBA) [1]: 0.6% | antitumour activity [2]: exhibit antitumour activity | LD50 [6]: 40 mg/kg | selectivity ratio [6]: 20 | ED50 [3]: 2 | LD50 [4]: 180 mg/kg | selectivity ratio [4]: 30 | ED50 [5]: 6

Source: patent US4177269A, “Novel 17-esters of 17α-hydroxy gestogens, compositions containing such compounds, processes for their preparation and methods of treatment therewith” (Aktiebolaget Leo, priority 1976, dated 1979)
